# Activity calls are given as the source filed them.
# Experiments:
# [1] = HEK293T cell cytotoxicity, dose response, cytotoxicity control for HIV Vif inhibitor project, cherry-picks (AID 652208); assay type: functional, cell-based
# [2] = molecular target: SWI/SNF-related matrix-associated actin-dependent regulator of chromatin subfamily A member 2 (Homo sapiens, UniProt P51531); experiment: Luminescence-based cell-based high throughput dose response assay to identify activators of the function of SWI/SNF related, matrix associated, actin dependent regulator of chromatin, subfamily a, member 2 (SMARCA2, BRM).; assay type: functional
# Chain of SWI/SNF-related matrix-associated actin-dependent regulator of chromatin subfamily A member 2 (P51531 whole entry, the tested form may be a part): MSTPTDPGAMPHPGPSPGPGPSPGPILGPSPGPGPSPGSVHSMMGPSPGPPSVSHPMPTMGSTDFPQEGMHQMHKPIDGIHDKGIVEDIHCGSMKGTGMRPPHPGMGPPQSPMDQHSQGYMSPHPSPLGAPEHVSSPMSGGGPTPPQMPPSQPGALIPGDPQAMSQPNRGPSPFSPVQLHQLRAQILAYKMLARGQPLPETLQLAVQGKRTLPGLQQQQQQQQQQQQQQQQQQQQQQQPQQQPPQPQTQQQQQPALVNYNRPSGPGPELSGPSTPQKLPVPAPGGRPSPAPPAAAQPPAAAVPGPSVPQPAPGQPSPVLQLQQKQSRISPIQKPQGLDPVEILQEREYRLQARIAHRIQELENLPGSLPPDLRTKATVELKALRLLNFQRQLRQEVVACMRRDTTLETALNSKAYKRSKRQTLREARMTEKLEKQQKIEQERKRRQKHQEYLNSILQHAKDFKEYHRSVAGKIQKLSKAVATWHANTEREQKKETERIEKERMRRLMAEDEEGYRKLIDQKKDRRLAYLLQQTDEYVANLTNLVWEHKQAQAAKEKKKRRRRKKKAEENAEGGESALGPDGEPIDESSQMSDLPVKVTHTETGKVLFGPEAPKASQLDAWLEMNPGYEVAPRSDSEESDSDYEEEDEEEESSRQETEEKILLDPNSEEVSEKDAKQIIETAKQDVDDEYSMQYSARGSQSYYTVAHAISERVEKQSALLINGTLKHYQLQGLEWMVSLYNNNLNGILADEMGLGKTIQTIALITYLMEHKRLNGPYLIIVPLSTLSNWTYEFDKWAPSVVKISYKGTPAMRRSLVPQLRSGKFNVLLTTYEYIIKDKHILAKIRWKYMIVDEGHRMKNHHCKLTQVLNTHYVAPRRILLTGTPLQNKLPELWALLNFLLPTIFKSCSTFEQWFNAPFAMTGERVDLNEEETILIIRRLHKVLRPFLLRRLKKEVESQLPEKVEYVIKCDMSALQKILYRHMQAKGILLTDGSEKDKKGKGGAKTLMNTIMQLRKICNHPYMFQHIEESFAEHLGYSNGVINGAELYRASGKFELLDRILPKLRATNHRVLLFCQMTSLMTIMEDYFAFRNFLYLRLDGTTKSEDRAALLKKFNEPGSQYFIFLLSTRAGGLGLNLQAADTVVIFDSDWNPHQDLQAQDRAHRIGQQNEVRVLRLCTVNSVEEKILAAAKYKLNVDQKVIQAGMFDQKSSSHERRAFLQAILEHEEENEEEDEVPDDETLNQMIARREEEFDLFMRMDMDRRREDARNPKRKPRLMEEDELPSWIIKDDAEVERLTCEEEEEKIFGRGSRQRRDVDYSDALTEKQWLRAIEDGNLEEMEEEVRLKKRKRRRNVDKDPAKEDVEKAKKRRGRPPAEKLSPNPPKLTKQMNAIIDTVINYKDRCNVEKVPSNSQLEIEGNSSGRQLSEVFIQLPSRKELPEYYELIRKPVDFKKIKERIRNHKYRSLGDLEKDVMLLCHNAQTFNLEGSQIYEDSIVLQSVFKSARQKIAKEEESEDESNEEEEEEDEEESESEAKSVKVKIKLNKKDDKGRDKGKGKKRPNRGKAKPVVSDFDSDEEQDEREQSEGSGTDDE
# [3] = molecular target: Photoreceptor-specific nuclear receptor (Homo sapiens, UniProt Q9Y5X4); assay type: functional, cell-based;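 note: CHO-S cells with Gal4-NCOR and VP16-NR2E3 two-hybrid luciferase reporter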
# Chain of Photoreceptor-specific nuclear receptor (Q9Y5X4 whole entry, the tested form may be a part): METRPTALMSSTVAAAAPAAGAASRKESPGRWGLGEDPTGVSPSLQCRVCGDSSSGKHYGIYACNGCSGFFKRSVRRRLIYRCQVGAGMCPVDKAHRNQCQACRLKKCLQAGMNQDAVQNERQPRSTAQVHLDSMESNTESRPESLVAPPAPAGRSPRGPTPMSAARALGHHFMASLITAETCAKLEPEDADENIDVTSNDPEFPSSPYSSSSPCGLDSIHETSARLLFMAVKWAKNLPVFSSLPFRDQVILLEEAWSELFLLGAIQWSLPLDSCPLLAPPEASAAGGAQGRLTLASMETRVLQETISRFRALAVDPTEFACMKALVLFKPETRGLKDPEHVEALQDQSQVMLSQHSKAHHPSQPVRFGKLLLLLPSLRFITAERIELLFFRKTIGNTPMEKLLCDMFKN
# INS1 = experiment: beta cell apoptosis inhibitors, cytokine rescue, dose response, luminescence, retest (AID 449756); assay type: functional, cell-based; settings: Rattus norvegicus;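 note: cell death triggered by IL-1 beta plus TNF-alpha plus IFN-gamma mixture; protective hits raise ATP signal compared with cytokine alone wells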
# [4] = Counterscreen for activators of the function of SWI/SNF related, matrix associated, actin dependent regulator of chromatin, subfamily a, member 2 (SMARCA2, BRM): Luminescence-based cell-based high throughput dose response assay to identify non-selective compounds using the VP16 reporter assay.; assay type: functional
# Streptokinase A = molecular target: T1, Streptokinase A (Streptococcus pyogenes serotype M1, UniProt P10520); experiment: S. pyogenes streptokinase expression inhibitors, potency, dose response, plasminogen activation absorbance, OD405 (AID 1914); assay type: functional, Streptococcus pyogenes M1 GAS;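 note: secreted streptokinase activity via plasminogen activation per viability signal from cell pellet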
# T1 sequence (P10520 whole entry): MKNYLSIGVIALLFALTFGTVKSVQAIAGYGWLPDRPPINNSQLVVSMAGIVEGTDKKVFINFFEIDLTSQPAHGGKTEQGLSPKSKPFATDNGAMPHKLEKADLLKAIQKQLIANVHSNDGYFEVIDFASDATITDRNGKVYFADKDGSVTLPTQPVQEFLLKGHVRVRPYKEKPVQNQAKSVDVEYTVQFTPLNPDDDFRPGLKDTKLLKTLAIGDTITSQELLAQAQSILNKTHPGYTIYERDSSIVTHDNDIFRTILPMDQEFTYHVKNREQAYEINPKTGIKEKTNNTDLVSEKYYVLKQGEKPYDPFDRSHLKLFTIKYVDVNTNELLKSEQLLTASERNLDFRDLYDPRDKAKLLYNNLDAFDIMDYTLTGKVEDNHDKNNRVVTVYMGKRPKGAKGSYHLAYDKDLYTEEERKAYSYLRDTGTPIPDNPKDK
# [5] = molecular target: T2, Heat shock factor protein 1 (Mus musculus, UniProt P38532); experiment: HSF1 potentiators in luciferase reporter cells, confirmation, cell-based, NIH3T3, luminescence, dose retest (AID 435004); assay type: functional;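 note: stress induced by proteasome inhibitor MG132 added 30 min after compound; luciferase reporter driven by HSF1 response element in NIH3T3 cells; actives raise luminescence as potentiators of the MG132 stress response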
# T2 sequence (P38532 whole entry): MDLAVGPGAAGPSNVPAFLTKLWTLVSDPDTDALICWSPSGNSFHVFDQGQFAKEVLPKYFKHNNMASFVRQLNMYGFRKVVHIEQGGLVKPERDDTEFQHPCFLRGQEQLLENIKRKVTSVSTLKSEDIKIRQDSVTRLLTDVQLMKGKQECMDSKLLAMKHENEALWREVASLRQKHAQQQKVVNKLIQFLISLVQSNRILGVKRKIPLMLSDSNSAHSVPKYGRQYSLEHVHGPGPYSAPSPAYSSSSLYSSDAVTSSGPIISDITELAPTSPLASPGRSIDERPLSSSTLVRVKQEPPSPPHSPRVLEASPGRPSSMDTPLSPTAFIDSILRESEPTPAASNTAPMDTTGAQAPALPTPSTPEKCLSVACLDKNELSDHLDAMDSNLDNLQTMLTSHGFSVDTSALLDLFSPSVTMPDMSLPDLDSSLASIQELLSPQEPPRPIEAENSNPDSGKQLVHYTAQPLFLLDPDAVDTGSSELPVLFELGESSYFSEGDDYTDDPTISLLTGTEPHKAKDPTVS
# [6] = molecular target: T3, Methionyl-tRNA synthetase, putative (Trypanosoma brucei brucei, UniProt Q38C91); assay type: functional, Trypanosoma brucei brucei strain 927/4 GUTat10.1
# T3 sequence (Q38C91 whole entry): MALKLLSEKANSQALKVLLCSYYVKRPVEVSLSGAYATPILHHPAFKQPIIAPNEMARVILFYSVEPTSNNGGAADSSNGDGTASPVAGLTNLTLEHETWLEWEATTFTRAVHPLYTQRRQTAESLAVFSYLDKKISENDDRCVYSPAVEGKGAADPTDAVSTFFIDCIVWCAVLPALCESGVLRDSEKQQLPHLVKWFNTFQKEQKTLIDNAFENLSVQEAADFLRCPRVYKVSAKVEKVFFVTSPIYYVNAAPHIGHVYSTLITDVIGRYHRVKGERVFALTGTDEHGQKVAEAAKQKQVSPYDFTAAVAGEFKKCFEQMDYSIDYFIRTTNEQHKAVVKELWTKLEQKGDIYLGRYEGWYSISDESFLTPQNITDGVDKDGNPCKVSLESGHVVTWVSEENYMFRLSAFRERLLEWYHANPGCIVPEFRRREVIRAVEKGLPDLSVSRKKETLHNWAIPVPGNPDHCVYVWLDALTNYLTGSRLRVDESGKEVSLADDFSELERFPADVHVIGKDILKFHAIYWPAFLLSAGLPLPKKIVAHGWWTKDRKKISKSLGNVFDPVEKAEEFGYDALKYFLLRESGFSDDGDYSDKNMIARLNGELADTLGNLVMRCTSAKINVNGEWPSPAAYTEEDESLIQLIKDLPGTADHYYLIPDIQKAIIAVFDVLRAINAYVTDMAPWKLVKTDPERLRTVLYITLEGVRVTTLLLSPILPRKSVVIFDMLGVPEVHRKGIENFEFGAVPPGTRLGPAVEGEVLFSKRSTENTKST
# Cysteine protease ATG4B = molecular target: T4, Cysteine protease ATG4B (Homo sapiens, UniProt Q9Y4P1); assay type: functional;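 note: Fluorescence-based dose-response confirmation assay measuring inhibition of ATG4B activity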
# T4 sequence (Q9Y4P1 whole entry): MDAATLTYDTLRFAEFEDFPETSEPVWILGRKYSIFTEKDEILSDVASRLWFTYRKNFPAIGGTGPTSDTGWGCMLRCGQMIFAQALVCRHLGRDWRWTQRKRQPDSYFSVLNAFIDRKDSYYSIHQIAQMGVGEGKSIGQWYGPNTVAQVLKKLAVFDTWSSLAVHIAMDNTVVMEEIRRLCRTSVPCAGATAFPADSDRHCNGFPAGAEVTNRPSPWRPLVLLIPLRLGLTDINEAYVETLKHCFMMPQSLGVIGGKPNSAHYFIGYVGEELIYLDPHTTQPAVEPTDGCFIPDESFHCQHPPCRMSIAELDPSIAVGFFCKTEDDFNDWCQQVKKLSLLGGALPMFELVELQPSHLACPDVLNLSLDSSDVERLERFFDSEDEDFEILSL
# [7] = test system: Streptococcus sp. 'group A'; experiment: growth inhibition of control SK(-) GAS strain, dose response, counter-screen for streptokinase expression inhibitor project, luminescence, kanamycin, BacTiterGlo, confirmation (AID 1900); assay type: functional, organism-based
# [8] = Counterscreen for inhibitors of Trypanosoma brucei methionyl tRNA synthetase (MetRS): Luminescence-based cell-based high throughput dose response assay to identify compounds that are cytotoxic to Jurkat human T lymphocyte cells.; assay type: functional
# [9] = molecular target: T3, Methionyl-tRNA synthetase, putative; assay type: functional, Trypanosoma brucei brucei strain 927/4 GUTat10.1; remark: listed apart in the source
# Streptococcus = experiment: Group A Streptococcus viability loss, dose response, counter-screen for streptokinase expression inhibitor project, luminescence, BacTiterGlo (AID 1915); assay type: functional, organism-based;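 note: potency for reduction of bacterial viability or growth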
# Phospholipase A2 = Phospholipase A2 (Homo sapiens, UniProt P04054); assay type: functional;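 note: confirmatory dose-response counterscreen on phospholipase A2, testing hits that came from an ultra-high-throughput screen for ATG4B inhibitors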
# Chain of Phospholipase A2 (P04054 whole entry): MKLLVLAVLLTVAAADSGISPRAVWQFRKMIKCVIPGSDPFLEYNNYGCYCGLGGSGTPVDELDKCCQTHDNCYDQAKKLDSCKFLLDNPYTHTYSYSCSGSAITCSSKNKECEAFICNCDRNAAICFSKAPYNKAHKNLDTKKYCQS
# [10] = THP-1 cell cytotoxicity, dose response, cytotoxicity control for Vif-APOBEC3G degradation inhibitor project, THP-1 cells (AID 1117359); assay type: functional; settings: Human immunodeficiency virus 1, THP-1
# [11] = molecular target: Botulinum neurotoxin type F (Clostridium botulinum, UniProt P30996); experiment: High-throughput multiplex microsphere dose response for inhibitors of toxin protease, specifically Botulinum neurotoxin light chain F protease, compounds from Cherry Pick 02.; assay type: functional; settings: read-out: EC50_MICROM
# [12] = inhibitors of Vif binding to APOBEC3G peptide, primary screen, biochemical, TR-FRET, GST-Vif 1-94, biotin-A3G peptide, dose response retest (AID 1117319); assay type: functional;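 note: TR-FRET signal of purified GST-Vif binding a biotinylated A3G peptide; inhibitors lower the FRET signal by blocking Vif and A3G binding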
# [13] = molecular target: T5, Small ubiquitin-related modifier 1 (Homo sapiens, UniProt P63165); experiment: inhibitors of SUMO1 partner interactions, dose response, biochemical, FRET (AID 624383); assay type: functional; settings: read-out: IC50_Mean
# T5 sequence (P63165 whole entry): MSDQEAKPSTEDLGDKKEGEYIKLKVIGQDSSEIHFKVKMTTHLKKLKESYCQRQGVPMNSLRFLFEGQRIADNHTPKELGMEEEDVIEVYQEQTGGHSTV
# [14] = molecular target: T5, Small ubiquitin-related modifier 1; experiment: inhibitors of SUMO1 peptide binding, dose response, biochemical, fluorescence polarization, uHTS hits (AID 624382); assay type: functional; settings: read-out: IC50_Mean
# [15] = molecular target: ADP-ribosylation factor GTPase-activating protein 1 (Rattus norvegicus, UniProt Q62848); experiment: Fluorescence polarization-based biochemical high throughput dose response screening assay to identify inhibitors of ADP-ribosylation factor GTPase activating protein 1 (ARFGAP1).; assay type: functional
# [16] = molecular target: Arf-GAP with SH3 domain, ANK repeat and PH domain-containing protein 1 (Homo sapiens, UniProt Q9ULH1); assay type: functional;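 note: biochemical fluorescence polarization dose–response screen measuring inhibition of ASAP1; ASAP1 GAP domain stimulating GTP hydrolysis by truncated human ARF1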
# Chain of Arf-GAP with SH3 domain, ANK repeat and PH domain-containing protein 1 (Q9ULH1 whole entry, the tested form may be a part): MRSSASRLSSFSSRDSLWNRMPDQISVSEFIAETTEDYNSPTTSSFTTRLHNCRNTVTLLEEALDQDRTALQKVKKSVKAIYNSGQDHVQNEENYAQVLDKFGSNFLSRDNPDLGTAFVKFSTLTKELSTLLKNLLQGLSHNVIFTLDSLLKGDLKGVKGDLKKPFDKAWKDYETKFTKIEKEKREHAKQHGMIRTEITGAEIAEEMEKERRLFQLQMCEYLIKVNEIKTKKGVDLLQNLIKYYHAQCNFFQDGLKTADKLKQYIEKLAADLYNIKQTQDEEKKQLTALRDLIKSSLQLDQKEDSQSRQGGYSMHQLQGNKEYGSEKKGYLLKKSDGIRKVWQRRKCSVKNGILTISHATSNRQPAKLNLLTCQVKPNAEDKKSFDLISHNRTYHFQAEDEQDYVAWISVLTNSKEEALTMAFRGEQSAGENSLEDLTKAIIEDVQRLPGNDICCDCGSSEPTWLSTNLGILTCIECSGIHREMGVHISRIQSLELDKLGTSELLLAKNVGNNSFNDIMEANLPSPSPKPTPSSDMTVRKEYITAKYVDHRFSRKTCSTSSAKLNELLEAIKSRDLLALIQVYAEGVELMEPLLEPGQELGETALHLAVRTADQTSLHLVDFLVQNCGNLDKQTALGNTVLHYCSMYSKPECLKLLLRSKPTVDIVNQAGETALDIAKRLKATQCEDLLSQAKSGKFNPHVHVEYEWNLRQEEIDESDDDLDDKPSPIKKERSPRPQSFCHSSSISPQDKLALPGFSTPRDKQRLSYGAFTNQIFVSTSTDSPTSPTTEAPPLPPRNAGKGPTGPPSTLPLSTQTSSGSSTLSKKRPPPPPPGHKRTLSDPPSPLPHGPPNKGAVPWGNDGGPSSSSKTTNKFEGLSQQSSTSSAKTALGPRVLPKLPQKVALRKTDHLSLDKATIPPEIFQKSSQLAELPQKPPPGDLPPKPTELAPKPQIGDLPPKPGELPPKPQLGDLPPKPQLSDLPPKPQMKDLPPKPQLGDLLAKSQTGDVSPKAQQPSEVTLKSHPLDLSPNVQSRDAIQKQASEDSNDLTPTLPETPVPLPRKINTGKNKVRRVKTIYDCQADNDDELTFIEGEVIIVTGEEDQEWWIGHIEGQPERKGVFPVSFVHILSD
# [17] = molecular target: T6, Short transient receptor potential channel 4 (Mus musculus, UniProt Q9QUQ5); experiment: mouse TRPC4 channel activators, dose response, cell-based, HEK293 TRPC4/mu-opioid, Fluo-4 calcium (AID 434937); assay type: functional
# T6 sequence (Q9QUQ5 whole entry): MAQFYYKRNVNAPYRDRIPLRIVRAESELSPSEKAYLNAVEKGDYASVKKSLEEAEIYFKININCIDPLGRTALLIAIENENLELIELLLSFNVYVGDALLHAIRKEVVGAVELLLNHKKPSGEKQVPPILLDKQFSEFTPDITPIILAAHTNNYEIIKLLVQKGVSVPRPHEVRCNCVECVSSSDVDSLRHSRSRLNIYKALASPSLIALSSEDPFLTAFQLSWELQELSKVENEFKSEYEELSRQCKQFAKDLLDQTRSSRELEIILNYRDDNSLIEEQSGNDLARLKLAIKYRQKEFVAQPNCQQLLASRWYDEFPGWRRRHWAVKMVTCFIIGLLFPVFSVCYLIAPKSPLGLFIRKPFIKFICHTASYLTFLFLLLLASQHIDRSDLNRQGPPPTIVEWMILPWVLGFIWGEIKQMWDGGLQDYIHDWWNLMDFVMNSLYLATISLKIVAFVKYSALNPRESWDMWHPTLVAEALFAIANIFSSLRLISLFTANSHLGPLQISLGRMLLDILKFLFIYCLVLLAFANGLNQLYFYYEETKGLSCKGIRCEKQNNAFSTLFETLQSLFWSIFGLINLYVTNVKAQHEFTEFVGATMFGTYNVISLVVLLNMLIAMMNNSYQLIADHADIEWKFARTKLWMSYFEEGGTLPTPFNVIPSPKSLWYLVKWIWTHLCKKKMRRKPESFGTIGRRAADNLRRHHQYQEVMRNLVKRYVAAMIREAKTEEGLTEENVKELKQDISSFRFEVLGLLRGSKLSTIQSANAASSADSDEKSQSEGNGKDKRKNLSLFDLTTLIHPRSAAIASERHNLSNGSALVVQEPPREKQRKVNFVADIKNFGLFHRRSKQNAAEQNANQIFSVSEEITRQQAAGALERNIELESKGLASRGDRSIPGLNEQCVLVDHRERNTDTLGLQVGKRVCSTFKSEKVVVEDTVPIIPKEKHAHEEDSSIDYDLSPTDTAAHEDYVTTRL
# [18] = Late-stage results from the probe development effort to identify activators of OPRM1 and OPRD1 heterodimer formation: luminescence-based cell-based dose response counterscreen assay to determine cytotoxicity of test compounds.; assay type: functional
# [19] = molecular target: Delta-type opioid receptor (Homo sapiens, UniProt P41143); experiment: Counterscreen for agonists of heterodimerization of the mu 1 (OPRM1) and delta 1 (OPRD1) opioid receptors: Luminescence-based cell-based high throughput dose response assay to identify agonists of OPRD1 homodimerization. [Related pubchem assays (depositor defined):AID504326, AID504355, AID504692, AID504904, AID504905]; assay type: functional
# Chain of Delta-type opioid receptor (P41143 whole entry): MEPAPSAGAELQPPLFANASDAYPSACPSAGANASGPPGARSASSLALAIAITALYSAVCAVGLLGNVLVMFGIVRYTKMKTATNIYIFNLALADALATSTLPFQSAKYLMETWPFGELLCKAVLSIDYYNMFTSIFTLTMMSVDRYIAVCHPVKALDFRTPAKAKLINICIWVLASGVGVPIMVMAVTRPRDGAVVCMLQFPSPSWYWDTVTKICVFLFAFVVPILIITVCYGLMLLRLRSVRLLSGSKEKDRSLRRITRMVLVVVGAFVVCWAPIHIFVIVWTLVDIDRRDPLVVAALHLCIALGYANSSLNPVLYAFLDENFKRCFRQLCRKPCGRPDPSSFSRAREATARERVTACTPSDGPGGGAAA
# Mu-type opioid receptor = Mu-type opioid receptor (Homo sapiens, UniProt P35372); experiment: Counterscreen for agonists of heterodimerization of the mu 1 (OPRM1) and delta 1 (OPRD1) opioid receptors: Luminescence-based cell-based high throughput dose response assay to identify agonists of OPRM1 homodimerization.; assay type: functional;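 note: U2OS cells expressing OPRM1 and beta-arrestin as split beta-galactosidase partners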
# [20] = molecular target: 5-hydroxytryptamine receptor 5A (Homo sapiens, UniProt P47898); experiment: Counterscreen for agonists of OPRM1-OPRD1 heterodimerization: luminescence-based cell-based high throughput dose response assay to identify agonists of 5-hydroxytryptamine (serotonin) 5A receptor (HTR5A). [Related pubchem assays (depositor defined):AID504326, AID504355, AID504692, AID504904, AID504905]; assay type: functional
# Chain of 5-hydroxytryptamine receptor 5A (P47898 whole entry): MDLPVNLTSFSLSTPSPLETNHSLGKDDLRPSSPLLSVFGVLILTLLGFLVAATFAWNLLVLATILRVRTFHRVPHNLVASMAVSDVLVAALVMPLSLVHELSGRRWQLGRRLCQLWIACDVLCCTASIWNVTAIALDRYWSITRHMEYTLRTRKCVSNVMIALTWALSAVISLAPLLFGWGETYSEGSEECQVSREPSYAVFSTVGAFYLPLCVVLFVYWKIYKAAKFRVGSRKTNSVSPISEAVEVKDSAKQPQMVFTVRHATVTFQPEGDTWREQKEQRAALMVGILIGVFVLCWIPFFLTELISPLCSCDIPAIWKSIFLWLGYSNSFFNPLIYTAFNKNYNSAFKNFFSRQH
# H9c2 = experiment: cells; assay type: functional, cell-based; settings: Rattus norvegicus, H9c2, Myocardium;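 note: confirmatory concentration-response retest of ultra-high-throughput screening hits for modulation of myocardial damage; cell death induced by hydrogen peroxide oxidative stress; compound pretreatment for 60 min then peroxide exposure for 2 h; potency is for protecting the cells against peroxide damage rather than for killing them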
# Vero = experiment: Vero cell toxicity, dose response, cytotoxicity control, plate reader, cherry-pick samples (AID 687020); assay type: functional, cell-based; settings: Chlorocebus sabaeus
structure (smiles),measurement,setting,value
Cc1cnc(NC(=O)CN2CCN(c3ccccn3)CC2)s1,AC50,[1],> 52 µM (inactive)
same,EC50,[2],> 91.2 µM (inactive)
same,IC50,[3],1.17 µM (active)
same,AC50,INS1,6.06 µM (active)
same,EC50,[4],> 91.2 µM (inactive)
S=C(NCCSCc1ccc(Cl)c(Cl)c1)Nc1ccccc1,EC50,Streptokinase A,14.4 µM (active)
same,EC50,[5],> 260 µM (inactive)
same,IC50,[6],11.6 µM (inactive)
same,IC50,Cysteine protease ATG4B,6.67 µM (active)
same,EC50,[7],11.2 µM (active)
same,IC50,[8],47.9 µM (inactive)
same,IC50,[9],11.1 µM (inactive)
same,EC50,Streptococcus,> 150 µM (not active)
same,IC50,Phospholipase A2,3.24 µM (active)
Cc1cccc2c1NC1(CCCC1)CC2C (stereo not drawn),CC50,[10],24.6 µM (active)
same,EC50,[11],> 20 µM (inactive)
same,IC50,[12],> 100 µM (active)
CC(=O)Nc1ccc(C(=O)Nc2nc(-c3cccnc3)cs2)cc1,IC50,[13],12.1 µM (active)
same,IC50,[14],> 66.6 µM (inactive)
same,IC50,[15],36.6 µM (inactive)
same,IC50,[16],31.1 µM (inactive)
CCOC(=O)C1(CCc2ccccc2)CCN(Cc2ccc(NC(C)=O)cc2)CC1,EC50,[17],26.7 nM (active)
same,CC50,[18],> 10 µM (inactive)
same,EC50,[19],4.5 µM (active)
same,EC50,Mu-type opioid receptor,24.3 µM (inactive)
same,EC50,[20],> 92.5 µM (inactive)
COc1ccc(N(CC(=O)NCCSc2ccccc2)S(=O)(=O)c2ccccc2)c(OC)c1,IC50,H9c2,10.8 µM (active)
same,AC50,Vero,38.4 µM (active)

# From ChEMBL document CHEMBL1201862, “PubChem BioAssay data set” (2004)
